In patent publication US20100179093A1, “Neoropeptide-2-Receptor (Y-2R) Agonists” (priority 2008, published 2010) one finds EC50 and Emax data, which are given here for nine compounds.

Holding throughout (type): cell-based
The target of one assay is T1, Y5R (Homo sapiens, UniProt Q15761).
T1 sequence (Q15761 1-445): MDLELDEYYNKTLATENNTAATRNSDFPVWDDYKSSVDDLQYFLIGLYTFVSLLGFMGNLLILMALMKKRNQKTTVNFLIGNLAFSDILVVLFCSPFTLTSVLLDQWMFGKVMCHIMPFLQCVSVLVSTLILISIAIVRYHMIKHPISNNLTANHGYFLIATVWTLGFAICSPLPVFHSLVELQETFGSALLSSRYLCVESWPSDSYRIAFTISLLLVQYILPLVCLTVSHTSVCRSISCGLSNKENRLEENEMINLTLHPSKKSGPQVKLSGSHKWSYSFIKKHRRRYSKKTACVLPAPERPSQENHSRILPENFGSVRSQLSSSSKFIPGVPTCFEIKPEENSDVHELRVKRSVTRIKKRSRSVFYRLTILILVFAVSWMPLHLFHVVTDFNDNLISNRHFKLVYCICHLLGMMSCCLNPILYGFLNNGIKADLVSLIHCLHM
Put plainly: CaFlux Assay (FLIPR), Y5R.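 As to Emax: percent of the maximal response of the positive control agonist.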 Conditions: for Emax: read-out: Y5R FLIPR, percentage in parentheses under the EC50.

The target in assay [1] is T2, hNPY2R (Homo sapiens, UniProt P49146).
T2 sequence (P49146 1-381): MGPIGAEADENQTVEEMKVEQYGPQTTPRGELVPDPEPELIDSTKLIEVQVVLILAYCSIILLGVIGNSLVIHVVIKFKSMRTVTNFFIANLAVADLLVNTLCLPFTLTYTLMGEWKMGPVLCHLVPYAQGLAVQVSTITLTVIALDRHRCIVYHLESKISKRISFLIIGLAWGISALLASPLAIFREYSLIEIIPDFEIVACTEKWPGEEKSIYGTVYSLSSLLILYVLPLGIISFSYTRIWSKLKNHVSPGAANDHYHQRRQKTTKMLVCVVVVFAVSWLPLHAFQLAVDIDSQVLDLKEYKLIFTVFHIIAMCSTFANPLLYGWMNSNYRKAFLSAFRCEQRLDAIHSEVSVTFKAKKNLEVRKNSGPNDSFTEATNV
Description: cAMP Agonist Assay, HEK293/hNPY2R cells. More on the design: expressed in transfected cells; host or cells: HEK293/hNPY2R (G418 selection).

Another assay has as its target T3, Y1R (Homo sapiens, UniProt P25929).
T3 sequence (P25929 1-384): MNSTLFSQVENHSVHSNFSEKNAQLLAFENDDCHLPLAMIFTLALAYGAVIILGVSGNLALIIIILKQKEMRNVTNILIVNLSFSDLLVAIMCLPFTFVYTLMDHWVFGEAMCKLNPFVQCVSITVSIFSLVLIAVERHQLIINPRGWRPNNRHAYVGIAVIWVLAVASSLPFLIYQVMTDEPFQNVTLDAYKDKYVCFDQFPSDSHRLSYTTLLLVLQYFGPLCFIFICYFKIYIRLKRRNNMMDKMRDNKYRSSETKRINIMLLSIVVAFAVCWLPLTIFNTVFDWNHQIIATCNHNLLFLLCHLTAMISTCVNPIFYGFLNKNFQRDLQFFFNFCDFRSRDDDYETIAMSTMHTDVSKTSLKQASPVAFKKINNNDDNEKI
Put plainly: CaFlux Assay (FLIPR), Y1R.

For assay [2], the target named is T2, hNPY2R. Put plainly: CaFlux Assay (FLIPR), Y2R. More on the design: expressed in transfected cells; host or cells: HEK-293 stably expressing G protein chimera Gaqi9.
Another assay has as its target Y4R (Homo sapiens, UniProt P50391). Put plainly: CaFlux Assay (FLIPR), Y4R.

The structures appear in SMILES notation. Read-outs that look alike come from different tables or passages of the source. A value given as a limit tells only on which side of the number the result lay.

Chain of Y4R (P50391 whole entry): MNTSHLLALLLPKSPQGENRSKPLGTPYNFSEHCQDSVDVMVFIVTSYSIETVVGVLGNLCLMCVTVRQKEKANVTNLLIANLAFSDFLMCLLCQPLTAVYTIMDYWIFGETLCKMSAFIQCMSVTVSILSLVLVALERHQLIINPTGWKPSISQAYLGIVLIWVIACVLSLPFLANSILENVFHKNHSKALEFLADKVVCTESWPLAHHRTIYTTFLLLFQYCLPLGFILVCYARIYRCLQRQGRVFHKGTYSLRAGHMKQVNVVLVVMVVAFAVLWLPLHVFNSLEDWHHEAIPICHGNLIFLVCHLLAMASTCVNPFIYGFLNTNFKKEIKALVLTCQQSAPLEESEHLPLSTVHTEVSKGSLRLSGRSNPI

Consider `CCCCCCCCCCCCCCCC(=O)N[C@H](C(=O)N[C@@H](CCCCN)C(=O)N1CCN(c2ccc3ncn(CC(=O)N[C@@H](CCCNC(=N)N)C(=O)N[C@@H](Cc4c[nH]cn4)C(=O)N[C@@H](Cc4ccc(O)cc4)C(=O)N[C@@H](CC(C)C)C(=O)N[C@@H](CC(N)=O)C(=O)N[C@@H](Cc4c[nH]c5ccccc45)C(=O)N[C@H](C(=O)N[C@H](C(=O)N[C@@H](CCCNC(=N)N)C(=O)N[C@@H](CCC(N)=O)C(=O)N(C)[C@@H](CCCNC(=N)N)C(=O)N[C@@H](Cc4ccc(O)cc4)C(N)=O)[C@@H](C)O)C(C)C)c(=O)c3c2)CC1)[C@@H](C)CC` [Example 15], for which the EC50 at Y5R was more than 5000 nM; on hNPY2R [1] it was 0.97 nM; on Y1R it was more than 5000 nM; at hNPY2R [2], 1.03 nM; on Y4R it was 1360 nM.
As to `CCCCCCCCCCCCCCCC(=O)NCCCCCC(=O)N[C@H](C(=O)N[C@@H](CCCCN)C(=O)N1CCN(c2ccc3ncn(CC(=O)N[C@@H](CCCNC(=N)N)C(=O)N[C@@H](Cc4c[nH]cn4)C(=O)N[C@@H](Cc4ccc(O)cc4)C(=O)N[C@@H](CC(C)C)C(=O)N[C@@H](CC(N)=O)C(=O)N[C@@H](Cc4c[nH]c5ccccc45)C(=O)N[C@H](C(=O)N[C@H](C(=O)N[C@@H](CCCNC(=N)N)C(=O)N[C@@H](CCC(N)=O)C(=O)N(C)[C@@H](CCCNC(=N)N)C(=O)N[C@@H](Cc4ccc(O)cc4)C(N)=O)[C@@H](C)O)C(C)C)c(=O)c3c2)CC1)[C@@H](C)CC` [Example 16], the 50% effective concentration (EC50) is 544 nM at Y5R; 0.23 nM on hNPY2R [1]; more than 5000 nM at Y1R; 0.18 nM at hNPY2R [2]; 13700 nM on Y4R.
Taken in the same sequence, the figures for `CCCCCCCCCCCCCCCC(=O)NCCCCCC(=O)N[C@H](C(=O)N[C@@H](CCCCN)C(=O)N1CCN(c2ccc3ncn(CC(=O)N[C@@H](CCCNC(=N)N)C(=O)N[C@@H](Cc4c[nH]cn4)C(=O)N[C@@H](Cc4ccc(O)cc4)C(=O)N[C@@H](CC(C)C)C(=O)N[C@@H](CC(N)=O)C(=O)N[C@@H](Cc4c[nH]c5ccccc45)C(=O)N[C@H](C(=O)N[C@H](C(=O)N[C@@H](CCCNC(=N)N)C(=O)N[C@@H](CCC(N)=O)C(=O)N[C@@H](CCCNC(=N)N)C(=O)N[C@@H](Cc4ccc(O)cc4)C(N)=O)[C@@H](C)O)C(C)C)c(=O)c3c2)CC1)[C@@H](C)CC` [Example 17] were 27 nM, 0.25 nM, more than 5000 nM, 0.09 nM and 14500 nM.
Taken in the same sequence, the figures for `CCCCCCCCCCCCCCCC(=O)NCCCCCC(=O)NCCCC[C@H](NC(=O)[C@@H](N)[C@@H](C)CC)C(=O)N1CCN(c2ccc3ncn(CC(=O)N[C@@H](CCCNC(=N)N)C(=O)N[C@@H](Cc4c[nH]cn4)C(=O)N[C@@H](Cc4ccc(O)cc4)C(=O)N[C@@H](CC(C)C)C(=O)N[C@@H](CC(N)=O)C(=O)N[C@@H](Cc4c[nH]c5ccccc45)C(=O)N[C@H](C(=O)N[C@H](C(=O)N[C@@H](CCCNC(=N)N)C(=O)N[C@@H](CCC(N)=O)C(=O)N(C)[C@@H](CCCNC(=N)N)C(=O)N[C@@H](Cc4ccc(O)cc4)C(N)=O)[C@@H](C)O)C(C)C)c(=O)c3c2)CC1` [Example 18] were 1190 nM, 0.18 nM, more than 5000 nM, 0.012 nM and more than 5000 nM.
Taken in the same sequence, the figures for `CCCCCCCCCCCCCCCC(=O)NCCCCCC(=O)NCCCC[C@H](NC(=O)[C@@H](N)[C@@H](C)CC)C(=O)N1CCN(c2ccc3ncn(CC(=O)N[C@@H](CCCNC(=N)N)C(=O)N[C@@H](Cc4c[nH]cn4)C(=O)N[C@@H](Cc4ccc(O)cc4)C(=O)N[C@@H](CC(C)C)C(=O)N[C@@H](CC(N)=O)C(=O)N[C@@H](Cc4c[nH]c5ccccc45)C(=O)N[C@H](C(=O)N[C@H](C(=O)N[C@@H](CCCNC(=N)N)C(=O)N[C@@H](CCC(N)=O)C(=O)N[C@@H](CCCNC(=N)N)C(=O)N[C@@H](Cc4ccc(O)cc4)C(N)=O)[C@@H](C)O)C(C)C)c(=O)c3c2)CC1` [Example 19] were 45 nM, 0.15 nM, more than 5000 nM, 0.004 nM and more than 5000 nM.
For `CCCCCCCCCCCCCCCC(=O)NCCC(=O)NCCCC[C@H](NC(=O)[C@@H](N)[C@@H](C)CC)C(=O)N1CCN(c2ccc3ncn(CC(=O)N[C@@H](CCCNC(=N)N)C(=O)N[C@@H](Cc4c[nH]cn4)C(=O)N[C@@H](Cc4ccc(O)cc4)C(=O)N[C@@H](CC(C)C)C(=O)N[C@@H](CC(N)=O)C(=O)N[C@@H](Cc4c[nH]c5ccccc45)C(=O)N[C@H](C(=O)N[C@H](C(=O)N[C@@H](CCCNC(=N)N)C(=O)N[C@@H](CCC(N)=O)C(=O)N(C)[C@@H](CCCNC(=N)N)C(=O)N[C@@H](Cc4ccc(O)cc4)C(N)=O)[C@@H](C)O)C(C)C)c(=O)c3c2)CC1` [Example 20], the EC50 on Y5R is 1880 nM; on hNPY2R [1], 0.26 nM; at Y1R, more than 5000 nM; on hNPY2R [2] it was 0.015 nM; at Y4R it was more than 5000 nM.
Consider `CCCCCCCCCCCCCCCC(=O)N[C@@H](CCC(=O)O)C(=O)NCCCC[C@H](NC(=O)[C@@H](N)[C@@H](C)CC)C(=O)N1CCN(c2ccc3ncn(CC(=O)N[C@@H](CCCNC(=N)N)C(=O)N[C@@H](Cc4c[nH]cn4)C(=O)N[C@@H](Cc4ccc(O)cc4)C(=O)N[C@@H](CC(C)C)C(=O)N[C@@H](CC(N)=O)C(=O)N[C@@H](Cc4c[nH]c5ccccc45)C(=O)N[C@H](C(=O)N[C@H](C(=O)N[C@@H](CCCNC(=N)N)C(=O)N[C@@H](CCC(N)=O)C(=O)N(C)[C@@H](CCCNC(=N)N)C(=O)N[C@@H](Cc4ccc(O)cc4)C(N)=O)[C@@H](C)O)C(C)C)c(=O)c3c2)CC1` [Example 21], for which the EC50 on Y5R is 4180 nM; on hNPY2R [1] it was 1 nM; at Y1R, more than 5000 nM; on hNPY2R [2], 0.43 nM; on Y4R, more than 5000 nM.
On to `CCCCCCCCCCCCCCCC(=O)N[C@@H](CCC(=O)O)C(=O)N[C@@H](CCC(=O)O)C(=O)NCCCC[C@H](NC(=O)[C@@H](N)[C@@H](C)CC)C(=O)N1CCN(c2ccc3ncn(CC(=O)N[C@@H](CCCNC(=N)N)C(=O)N[C@@H](Cc4c[nH]cn4)C(=O)N[C@@H](Cc4ccc(O)cc4)C(=O)N[C@@H](CC(C)C)C(=O)N[C@@H](CC(N)=O)C(=O)N[C@@H](Cc4c[nH]c5ccccc45)C(=O)N[C@H](C(=O)N[C@H](C(=O)N[C@@H](CCCNC(=N)N)C(=O)N[C@@H](CCC(N)=O)C(=O)N(C)[C@@H](CCCNC(=N)N)C(=O)N[C@@H](Cc4ccc(O)cc4)C(N)=O)[C@@H](C)O)C(C)C)c(=O)c3c2)CC1` [Example 23], for which the EC50 was 459 nM on Y5R (FLIPR, read-out: Y5R EC50 (nM) FLIPR); 0.29 nM on hNPY2R [1] (HEK293/hNPY2R, Forskolin 5 μM, read-out: Y2R EC50 (nM) cAMP); more than 5000 nM at Y1R (FLIPR, read-out: Y1R EC50 (nM) FLIPR); 0.033 nM at hNPY2R [2] (FLIPR calcium flux, Hek-293 cells with Gaqi9 and human NPY2 receptor, read-out: Y2R EC50 (nM) FLIRR); more than 5000 nM on Y4R (FLIPR, read-out: Y4R EC50 (nM) FLIPR). The Emax at Y5R was 70%.
On to `CCCCCCCCCCCCCCCC(=O)N[C@@H](CCC(=O)NCCCC[C@H](NC(=O)[C@@H](N)[C@@H](C)CC)C(=O)N1CCN(c2ccc3ncn(CC(=O)N[C@@H](CCCNC(=N)N)C(=O)N[C@@H](Cc4c[nH]cn4)C(=O)N[C@@H](Cc4ccc(O)cc4)C(=O)N[C@@H](CC(C)C)C(=O)N[C@@H](CC(N)=O)C(=O)N[C@@H](Cc4c[nH]c5ccccc45)C(=O)N[C@H](C(=O)N[C@H](C(=O)N[C@@H](CCCNC(=N)N)C(=O)N[C@@H](CCC(N)=O)C(=O)N(C)[C@@H](CCCNC(=N)N)C(=O)N[C@@H](Cc4ccc(O)cc4)C(N)=O)[C@@H](C)O)C(C)C)c(=O)c3c2)CC1)C(=O)O` [Example 24], for which the EC50 at Y5R was 168 nM; on hNPY2R [1] it was 0.21 nM; at Y1R it was more than 5000 nM; at hNPY2R [2] it was 0.039 nM; on Y4R, more than 5000 nM. For the same compound, on Y5R, the Emax stood at 70%.

As a reminder, the EC50 is the concentration at which the effect is half-maximal.
